Read-outs that look alike come from different tables or passages of the source.
Key:
HIV-1 (IIIB) = test: Antiviral assay in MT-4 cells (HIV MT-4 antiviral assay); type: cell-based; conditions: Human immunodeficiency virus 1, IIIB, MT4, 120 h, HIV-1 (IIIB) in MT-4 cells, 5 days incubation; read-out: EC50
Summary of the method: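 Read-out is CellTiter-Glo chemiluminescence after 5-day culture at 37° C, giving protection of MT-4 cells from HIV-1 IIIB cytopathicity. Compounds tested in 1:3 dilution series in complete RPMI; controls were no drug, mock infection and 5 μM AZT.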

[1] = Cytotoxicity assay in MT-4 cells; type: cell-based, human; conditions: human, uninfected MT-4 cells, 5 days incubation; read-out: CC50
Summary of the method: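 For cytotoxicity, uninfected MT-4 cells were incubated with compounds 5 days at 37 °C, with 10 μM puromycin marking base cytotoxicity. Parallel plates used HIV-1 IIIB-infected (1:250 stock dilution) or mock cells with 5 μM AZT and no-drug controls. Read-out: CellTiter-Glo chemiluminescence.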

pLai RLuc reporter virus = test: microbe, parasite or virus in culture; type: cell-based, HIV; conditions: Human immunodeficiency virus 1, 72 h
Summary of the method: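 Read-out is Renilla luciferase after 72 h at 37 °C in MT-4 cells infected 2 h beforehand with pLai RLuc reporter virus; compounds diluted 1:3.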

[2] = read-out: Antiviral Serum Shift RLuc 50% HS, HS/CCM (RPMI media, 10% FBS, 50% HS, 1% P/S), 72-h incubation
[3] = read-out: Antiviral Serum Shift RLuc CCM, CCM (RPMI media, 10% FBS, 1% P/S), 72-h incubation

Row | SMILES | EC50 (HIV-1 (IIIB)) [nM] | CC50 at 5 days [1] [nM] | EC50 (pLai RLuc reporter virus; [2]) [nM] | EC50 (pLai RLuc reporter virus; [3]) [nM]
1 | C[C@]1(F)CCCN2C[C@@H]1n1cc(C(=O)NCc3c(F)cc(F)cc3F)c(=O)c(O)c1C2=O [Example 61-1, (6S, 7S)-6-fluoro-12-hydroxy-6-methyl-1,11-dioxo-N-(2,4,6-trifluorobenzyl)-1,4,5,6,7,11-hexahydro-3H-2,7-methanopyrido[1,2-a][1,4]diazonine-10-carboxamide] | 1.85 | 10300 | 72 | 0.206
2 | C[C@@]1(F)CCCN2C[C@@H]1n1cc(C(=O)NCc3c(F)cc(F)cc3F)c(=O)c(O)c1C2=O [Example 61-2, (6R, 7S)-6-fluoro-12-hydroxy-6-methyl-1,11-dioxo-N-(2,4,6-trifluorobenzyl)-1,4,5,6,7,11-hexahydro-3H-2,7-methanopyrido[1,2-a][1,4]diazonine-10-carboxamide] | 2.51 | 16900 | 13.8 | 0.142
3 | O=C(NCc1ccc(F)c(Cl)c1Cl)c1cn2c(c(O)c1=O)C(=O)N1CCCC[C@H]2C1 [Example 62, (7S)—N-(2,3-dichloro-4-fluorobenzyl)-12-hydroxy-1,11-dioxo-1,4,5,6,7,11-hexahydro-3H-2,7-methanopyrido[1,2-a][1,4]diazonine-10-carboxamide] | 1.27 | 3460 | 4.22 | 0.292
4 | O=C(NCc1ccc(F)cc1F)c1cn2c(c(O)c1=O)C(=O)N1CCC[C@@H]3C[C@]32C1 [Example 65-1, (1aR,11aR)—N-(2,4-difluorobenzyl)-7-hydroxy-6,8-dioxo-1a,2,3,4,6,8-hexahydro-1H-5,11a-methanocyclopropa[h]pyrido[1,2-a][1,4]diazonine-9-carboxamide] | 1.73 | 8800 | 28.5 | 0.297
5 | O=C(NCc1ccc(F)cc1F)c1cn2c(c(O)c1=O)C(=O)N1CCC[C@H]3C[C@@]32C1 [Example 65-2, (1aS,11aS)—N-(2,4-difluorobenzyl)-7-hydroxy-6,8-dioxo-1a,2,3,4,6,8-hexahydro-1H-5,11a-methanocyclopropa[h]pyrido[1,2-a][1,4]diazonine-9-carboxamide] | 1.66 | 8820 | 3.47 | 0.341
6 | O=C(NCc1c(F)cc(F)cc1F)c1cn2c(c(O)c1=O)C(=O)N1CCC[C@@H]3C[C@]32C1 [Example 66-1, (1aR,11aR)—N-(2,4,6-trifluorobenzyl)-7-hydroxy-6,8-dioxo-1a,2,3,4,6,8-hexahydro-1H-5,11a-methanocyclopropa[h]pyrido[1,2-a][1,4]diazonine-9-carboxamide] | 1.76 | 11100 | 20.3 | 0.226
7 | O=C(NCc1c(F)cc(F)cc1F)c1cn2c(c(O)c1=O)C(=O)N1CCC[C@H]3C[C@@]32C1 [Example 66-2, (1aS,11aS)—N-(2,4,6-trifluorobenzyl)-7-hydroxy-6,8-dioxo-1a,2,3,4,6,8-hexahydro-1H-5,11a-methanocyclopropa[h]pyrido[1,2-a][1,4]diazonine-9-carboxamide] | 1.68 | 10400 | 4.55 | 0.294
8 | O=C(NCc1ccc(F)c(Cl)c1F)c1cn2c(c(O)c1=O)C(=O)N1CC2CCc2cccc(F)c21 (stereo not drawn) [Example 67, N-(3-chloro-2,4-difluorobenzyl)-4-fluoro-7-hydroxy-6,8-dioxo-6,8,13,14-tetrahydro-12H-5,12-methanobenzo[e]pyrido[1,2-a][1,4]diazonine-9-carboxamide] | 2.44 | 23900 | 1.49 | 0.437
9 | O=C(NCc1ccc(F)c(Cl)c1F)c1cn2c(c(O)c1=O)C(=O)N1CC2CCc2cc(F)ccc21 (stereo not drawn) [Example 68, N-(3-chloro-2,4-difluorobenzyl)-2-fluoro-7-hydroxy-6,8-dioxo-6,8,13,14-tetrahydro-12H-5,12-methanobenzo[e]pyrido[1,2-a][1,4]diazonine-9-carboxamide] | 1.2 | 3580 | 1.17 | 0.279

— patent publication US12227520B2 (priority 2019, dated 2025)
